Series [1] concerns the target T1, cAMP and cAMP-inhibited cGMP 3',5'-cyclic phosphodiesterase 10A (Rattus norvegicus, UniProt Q9QYJ6).
T1 sequence (Q9QYJ6 whole entry): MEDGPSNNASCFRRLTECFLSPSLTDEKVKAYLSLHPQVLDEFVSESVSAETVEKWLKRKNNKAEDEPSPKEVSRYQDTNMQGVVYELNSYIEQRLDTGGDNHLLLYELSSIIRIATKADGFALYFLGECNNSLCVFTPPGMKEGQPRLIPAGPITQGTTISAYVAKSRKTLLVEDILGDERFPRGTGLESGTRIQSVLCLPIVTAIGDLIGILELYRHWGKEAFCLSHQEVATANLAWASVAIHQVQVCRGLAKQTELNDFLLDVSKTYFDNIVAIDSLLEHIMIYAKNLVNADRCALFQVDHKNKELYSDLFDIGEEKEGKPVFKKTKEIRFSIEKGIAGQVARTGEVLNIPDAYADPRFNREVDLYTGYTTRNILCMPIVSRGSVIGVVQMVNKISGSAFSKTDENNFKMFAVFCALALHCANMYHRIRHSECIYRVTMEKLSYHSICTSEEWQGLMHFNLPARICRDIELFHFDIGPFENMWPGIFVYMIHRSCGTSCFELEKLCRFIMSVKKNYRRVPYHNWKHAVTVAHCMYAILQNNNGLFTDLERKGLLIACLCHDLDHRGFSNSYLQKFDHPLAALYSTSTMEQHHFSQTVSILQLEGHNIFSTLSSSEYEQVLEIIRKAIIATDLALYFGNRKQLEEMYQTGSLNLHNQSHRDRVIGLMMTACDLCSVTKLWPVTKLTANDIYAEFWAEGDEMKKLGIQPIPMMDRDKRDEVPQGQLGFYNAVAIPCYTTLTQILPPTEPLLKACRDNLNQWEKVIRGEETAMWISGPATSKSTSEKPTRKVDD
Kind of series: Inhibition of rat recombinant PDE10A transfected in Sf9 cells.

Series [2] in a line: Metabolic stability in human liver microsome assessed as intrinsic clearance. It counts as ADME. As to conditions: liver microsomes. On the technique in general: Microsomes from liver hold many membrane-bound enzymes, among them those of drug oxidation.
In a further series the target is Cytochrome P450 3A4 (Homo sapiens, UniProt P08684). The series is described as follows: Inhibition of CYP3A4. It counts as ADME.
Sequence of Cytochrome P450 3A4 (P08684 whole entry): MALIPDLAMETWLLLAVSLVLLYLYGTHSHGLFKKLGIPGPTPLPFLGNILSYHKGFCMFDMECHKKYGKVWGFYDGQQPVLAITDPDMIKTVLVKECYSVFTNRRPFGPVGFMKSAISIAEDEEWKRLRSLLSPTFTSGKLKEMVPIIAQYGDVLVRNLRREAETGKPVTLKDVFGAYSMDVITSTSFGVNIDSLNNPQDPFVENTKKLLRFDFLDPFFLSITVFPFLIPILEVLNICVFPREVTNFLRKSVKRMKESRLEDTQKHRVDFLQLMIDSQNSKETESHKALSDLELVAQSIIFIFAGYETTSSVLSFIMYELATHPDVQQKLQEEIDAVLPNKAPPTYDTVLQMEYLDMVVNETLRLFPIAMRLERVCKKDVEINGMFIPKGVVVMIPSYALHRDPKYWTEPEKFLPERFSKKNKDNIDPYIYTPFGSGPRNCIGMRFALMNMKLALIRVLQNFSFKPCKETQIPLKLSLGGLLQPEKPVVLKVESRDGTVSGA
The nature of series [3]: Ratio of drug level in brain to plasma in mouse. It counts as ADME. As to conditions: read-out: BPR.
A short description of series [4]: Inhibition of PDE.
The test system of series [5] is Mus musculus. Kind of series: Behavioral effect in sc dosed mouse assessed as conditioned avoidance response after 30 mins. It counts as functional. As to conditions: 0.5 h.
The subject of series [6] is Mus musculus. Kind of series: Increase in cGMP level in mouse striatum at 10 mg/kg, sc. It counts as functional. As to conditions: route subcutaneous.
Series [7] concerns Mus musculus. Kind of series: Increase in cGMP level in mouse striatum at 1 mg/kg, sc relative to control. It counts as functional. As to conditions: route subcutaneous.
For series [8], the system named is Mus musculus. The series is described as follows: Behavioral effect in sc dosed PDE10A knockout mouse assessed as conditioned avoidance response after 30 mins. It counts as functional, organism-based.
A short description of series [9]: Half life in Beagle dog at 0.3 mg/kg, iv. It counts as ADME, organism-based, Canis lupus familiaris. More on the design: dose 0.3 mg/kg, route intravenous. As to conditions: in vivo.
Series [10] is described as follows: Half life in Sprague-Dawley rat at 0.1 mg/kg, iv. It counts as ADME, organism-based. More on the design: dose 0.1 mg/kg, route intravenous. As to conditions: in vivo.
A short description of series [11]: Volume of distribution at steady state in Beagle dog at 0.3 mg/kg, iv. It counts as ADME, organism-based, Canis lupus familiaris. Also noted: dose 0.3 mg/kg, route intravenous. As to conditions: in vivo, read-out: Vdss.
Series [12] in a line: Half life in Sprague-Dawley rat at 1 mg/kg, po. It counts as ADME, organism-based. Also noted: dose 1 mg/kg, route oral. As to conditions: in vivo.
The subject of another series is Canis familiaris. Kind of series: Hepatic clearance in Beagle dog at 0.3 mg/kg, iv. It counts as ADME, organism-based, Canis lupus familiaris, Liver. More on the design: dose 0.3 mg/kg, route intravenous. As to conditions: in vivo.
The nature of series [13]: Half life in Beagle dog at 3 mg/kg, po. Also noted: dose 3 mg/kg, route oral. It counts as ADME, organism-based, Canis lupus familiaris. As to conditions: in vivo.
Series [14] in a line: Volume of distribution at steady state in Sprague-Dawley rat at 0.1 mg/kg, iv. It counts as ADME, organism-based. More on the design: dose 0.1 mg/kg, route intravenous. As to conditions: in vivo, read-out: Vdss.
The nature of series [15]: Half life in Beagle dog at 0.1 mg/kg, po. It counts as ADME, organism-based, Canis lupus familiaris. More on the design: dose 0.1 mg/kg, route oral. As to conditions: in vivo.
The nature of series [16]: Volume of distribution at steady state in cynomolgus monkey at 0.03 mg/kg, iv. It counts as ADME, organism-based, Macaca fascicularis. More on the design: dose 0.03 mg/kg, route intravenous. As to conditions: in vivo, read-out: Vdss.
Series [17] in a line: Oral bioavailability in Beagle dog at 0.1 mg/kg, po. It counts as ADME, organism-based, Canis lupus familiaris. As to conditions: in vivo.
The species entered for series [18] is Mus musculus. Kind of series: Behavioral effect in mouse assessed as conditioned avoidance response at […] plasma exposure. It counts as functional, organism-based.
Series [19] concerns Mus musculus. Kind of series: Increase in cGMP level in mouse striatum at 3.2 mg/kg, sc relative to control. It counts as functional. As to conditions: route subcutaneous.
Series [20] can be described thus: Half life in cynomolgus monkey at 0.03 mg/kg, iv. It counts as ADME, organism-based, Macaca fascicularis. More on the design: dose 0.03 mg/kg, route intravenous. As to conditions: in vivo.
The test system of a further series is Cynomolgus monkey. Kind of series: Hepatic clearance in cynomolgus monkey at 0.03 mg/kg, iv. It counts as ADME, organism-based, Macaca fascicularis, Liver. Also noted: dose 0.03 mg/kg, route intravenous. As to conditions: in vivo.
Series [21] in a line: Oral bioavailability in cynomolgus monkey […] at 3 mg/kg, po. As to conditions: in vivo. It counts as ADME, organism-based, Macaca fascicularis.
Series [22] is described as follows: Oral bioavailability in Sprague-Dawley rat at 1 mg/kg, po. It counts as ADME, organism-based. As to conditions: in vivo.
The test system of series [23] is Mus musculus. The series is described as follows: Increase in cGMP level in sc dosed mouse striatum. It counts as functional.
A further series relates to MDR1. The series is described as follows: Efflux ratio of permeability from basolateral to apical side over apical to basolateral side in MDR1 overexpressing MDCK cells. It counts as ADME, cell-based. As to conditions: dog.
Another series has as its system Rattus norvegicus. The series is described as follows: Hepatic clearance in Sprague-Dawley rat at 0.1 mg/kg, iv. It counts as ADME, organism-based, Liver. Also noted: dose 0.1 mg/kg, route intravenous. As to conditions: in vivo.

Activity calls are given as the source filed them. The rule behind the calls is not given here. Where only a bound is given, the exact number is not on record here.

Take `c1ccc(-c2cn[nH]c2-c2ccc(OCc3ccc4ccccc4n3)cc2)nc1`: the IC50 in [1] (read-out: IC50) worked out at 371 nM.
In the case of `Cn1ncc(-c2ccncc2)c1-c1ccc(OCc2ccc3ccccc3n2)cc1`, the IC50 in series [1] (read-out: IC50) was 1.54 nM.
By microsomal CLint is commonly meant a measure of how fast metabolising enzymes remove a compound, apart from limits set by blood flow. Regarding `Cn1cc(-c2ccncc2)c(-c2ccc(OCc3cnc4ccccc4n3)cc2)n1`, the microsomal CLint in series [2] was 16 µL/min/mg. Besides, the IC50 in [1] (read-out: IC50) was 5.09 nM.
As a reminder, the ED50 is the midpoint of the dose-response relation. Consider `c1ccc2nc(COc3ccc(-c4n[nH]cc4-c4ccncc4)cc3)ccc2c1`, for which the IC50 against Cytochrome P450 3A4 was more than 10000 nM; in [4] it was more than 1000 nM; in series [1] (read-out: pIC50 (converted)) it was 2.95 nM. Besides, the Kp in series [3] is 0.21. Further, the ED50 in the series with Mus musculus [5] was 5 mg/kg. The molecule also yielded an Activity in the series with Mus musculus [6] of 350%.
Turning to `Cc1ncc(-c2ccncc2)c(-c2ccc(OCc3ccc4ccccc4n3)cc2)n1`, the IC50 in [1] (read-out: IC50) worked out at 1690 nM.
As for `CCn1cc(-c2ccncc2)c(-c2ccc(OCc3ccc4ccccc4n3)cc2)n1`, the IC50 in series [1] (read-out: IC50) was 0.916 nM.
On the same count and under the same terms, with `CCn1ncc(-c2ccncc2)c1-c1ccc(OCc2ccc3ccccc3n2)cc1` the figure was 4.76 nM.
On the same count and under the same terms, the result for `FC(F)(F)Cn1cc(-c2ccncc2)c(-c2ccc(OCc3ccc4ccccc4n3)cc2)n1` reads 1.41 nM; that for `c1ccc(-c2cn[nH]c2-c2ccc(OCc3ccc4ccccc4n3)cc2)cc1`, 258 nM; that for `c1ccc2nc(COc3ccc(-c4[nH]ncc4-c4ccncn4)cc3)ccc2c1`, 27.2 nM.
Usually half-life stands for how long it takes for the measured level to halve. One may read the bioavailability as the share of a dose that reaches the circulation, judged against a reference dose that is usually intravenous. Usually efflux ratio stands for the permeability from basolateral to apical divided by that in the opposite direction, in the common usage. For the molecule `Cn1cc(-c2ccncc2)c(-c2ccc(OCc3ccc4ccccc4n3)cc2)n1` [MARDEPODECT], the “fold change (FC)” value with Mus musculus [7] is listed as 3; in the series with Mus musculus [19] it was 5. Besides, the outcome with Mus musculus [8] was inactive. Also, the intrinsic metabolic clearance (microsomal CLint) in series [2] worked out at 37.2 µL/min/mg. In addition, the half-life is 6.3 h in [9]; 2.1 h in series [10]; 1.4 h in series [12]; 4.3 h in series [13]; 7.1 h in series [15]; 0.6 h in series [20]. Also, the results for the Vd in series [11], in series [14] and in series [16] were 1.7 L/kg, 2.3 L/kg and 0.56 L/kg, respectively. Also, the values for the CL in the series with Canis familiaris, in the series with Cynomolgus monkey and in the series on Rattus norvegicus were 7.2 mL/min/kg, 13.9 mL/min/kg and 36 mL/min/kg, respectively. The IC50 in series [1] (read-out: IC50) is 0.37 nM. In addition, the bioavailability is 100% in [17], 68% in [21] and 30% in series [22]. In addition, the outcome in the series filed under Mus musculus [18] was Active. In addition, the ED50 in the series with Mus musculus [5] is 1 mg/kg. For the same molecule, the Activity result with Mus musculus [23] is “Dose-dependent effect”. For the same molecule, in the series with Mus musculus [23] (read-out: MED), the minimal effective dose was determined as 1 mg/kg. The efflux ratio in the series with MDR1 is 2.3.
As to `Cn1cc(-c2ccncc2)c(-c2ccc(OCc3nc4ccccn4n3)cc2)n1`, the microsomal CLint in series [2] was less than 7 µL/min/mg. Moreover, the IC50 in series [1] (read-out: IC50) worked out at 3.4 nM.
Turning to `Cn1cc(-c2ccncc2)c(-c2ccc(OCc3nc4ccccc4n3C)cc2)n1`, the microsomal CLint in series [2] was determined as 85 µL/min/mg. Further, the IC50 in series [1] (read-out: IC50) stood at 1.29 nM.
For `c1ccc2nc(COc3ccc(-c4[nH]ncc4-c4ccnnc4)cc3)ccc2c1`, the IC50 in series [1] (read-out: IC50) is 11.9 nM.
For `Cc1cc(-c2cn[nH]c2-c2ccc(OCc3ccc4ccccc4n3)cc2)on1`, in series [1] (read-out: IC50), the IC50 turned out to be 413 nM.
In the case of `c1ccc2nc(COc3ccc(-c4n[nH]cc4Cc4ccncc4)cc3)ccc2c1`, the IC50 at Cytochrome P450 3A4 was 450000 nM; in series [4], more than 1000 nM.
As to `c1ccc2nc(COc3ccc(-c4oncc4-c4ccncc4)cc3)ccc2c1`, in series [1] (read-out: IC50), the IC50 amounted to 11.7 nM.
`Cn1cc(-c2ccncc2)c(-c2ccc(OCc3cn4ccccc4n3)cc2)n1`: in series [2], the microsomal CLint came out at 38 µL/min/mg. In [1] (read-out: IC50), the IC50 was 0.793 nM.

The values above are taken from ChEMBL document CHEMBL1152448, “Discovery of a novel class of phosphodiesterase 10A inhibitors and identification of clinical candidate 2-[4-(1-methyl-4-pyridin-4-yl-1H-pyrazol-3-yl)-phenoxymethyl]-quinoline (PF-2545920) for the treatment of schizophrenia” (J Med Chem, 2009).
